Laboratory results as given in patent US12077503B2, “Substituted cyclic amides and their use as herbicides” (FMC CORPORATION, priority 2015, dated 2024).

Key:
Format in all cases: in vivo
Kochia (Kochia scoparia) [1] = test: Test A preemergence; details: Preemergence; for Plant response rating, Kochia: 125 g ai/ha, visual injury after approximately 10 d, 0 to 100 scale where 0 is no effect and 100 is complete control; for Kochia plant response rating (0 to 100 scale, 0 is no effect, 100 is complete control): 500 g ai/ha, visual injury approx. 10 d
Procedure, shortened: (§1)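 Greenhouse, ~10 d after spray; visual injury vs untreated controls, 0 = no effect, 100 = complete control. Preemergence: directed soil spray over planted seeds. Postemergence: plants 2–10 cm, 1–2 leaf stage. Loam/sand blend. Compound in non-phytotoxic solvent with surfactant.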

[2] = test system: barnyardgrass (Echinochloa crus-galli); test: Test A preemergence; details: Preemergence; for Plant response rating, Barnyardgrass: 125 g ai/ha, visual injury after approximately 10 d, 0 to 100 scale where 0 is no effect and 100 is complete control; for Barnyardgrass plant response rating (0 to 100 scale, 0 is no effect, 100 is complete control): 500 g ai/ha, visual injury approx. 10 d
Procedure, shortened: as §1

[3] = test system: giant foxtail (Setaria faberii); test: Test A preemergence; details: Preemergence; for Plant response rating, Foxtail, Giant: 125 g ai/ha, visual injury after approximately 10 d, 0 to 100 scale where 0 is no effect and 100 is complete control; for Foxtail, Giant plant response rating (0 to 100 scale, 0 is no effect, 100 is complete control): 500 g ai/ha, visual injury approx. 10 d
Procedure, shortened: as §1

[4] = test system: pigweed (Amaranthus retroflexus); test: Test A preemergence; details: Preemergence; for Plant response rating, Pigweed: 125 g ai/ha, visual injury after approximately 10 d, 0 to 100 scale where 0 is no effect and 100 is complete control; for Pigweed plant response rating (0 to 100 scale, 0 is no effect, 100 is complete control): 500 g ai/ha, visual injury approx. 10 d
[5] = test system: ragweed (common ragweed, Ambrosia elatior); test: Test A preemergence; details: Preemergence; for Plant response rating, Ragweed: 125 g ai/ha, visual injury after approximately 10 d, 0 to 100 scale where 0 is no effect and 100 is complete control; for Ragweed plant response rating (0 to 100 scale, 0 is no effect, 100 is complete control): 500 g ai/ha, visual injury approx. 10 d
Procedure, shortened: as §1

[6] = test system: ryegrass, Italian (Italian ryegrass, Lolium multiflorum); test: Test A preemergence; details: Preemergence; for Plant response rating, Ryegrass, Italian: 125 g ai/ha, visual injury after approximately 10 d, 0 to 100 scale where 0 is no effect and 100 is complete control; for Ryegrass, Italian plant response rating (0 to 100 scale, 0 is no effect, 100 is complete control): 500 g ai/ha, visual injury approx. 10 d
Procedure, shortened: as §1

[7] = test system: Galium (catchweed bedstraw, Galium aparine); test: Test A postemergence; details: for Galium plant response rating: 125 g ai/ha, postemergence, visual injury rating on 0 to 100 scale (0 no effect, 100 complete control), approx. 10 d; for Plant response rating, Galium: Postemergence, 500 g ai/ha, 0 to 100 scale where 0 is no effect and 100 is complete control
Procedure, shortened: as §1

Kochia (Kochia scoparia) [8] = test: Test A postemergence; details: for Kochia plant response rating: 125 g ai/ha, postemergence, visual injury rating on 0 to 100 scale (0 no effect, 100 complete control), approx. 10 d; for Plant response rating, Kochia: Postemergence, 500 g ai/ha, 0 to 100 scale where 0 is no effect and 100 is complete control
Procedure, shortened: as §1

[9] = test system: barnyardgrass (Echinochloa crus-galli); test: Test A postemergence; details: for Barnyardgrass plant response rating: 125 g ai/ha, postemergence, visual injury rating on 0 to 100 scale (0 no effect, 100 complete control), approx. 10 d; for Plant response rating, Barnyardgrass: Postemergence, 500 g ai/ha, 0 to 100 scale where 0 is no effect and 100 is complete control
Procedure, shortened: as §1

[10] = test system: blackgrass (Alopecurus myosuroides); test: Test A postemergence; details: for Blackgrass plant response rating: 125 g ai/ha, postemergence, visual injury rating on 0 to 100 scale (0 no effect, 100 complete control), approx. 10 d; for Plant response rating, Blackgrass: Postemergence, 500 g ai/ha, 0 to 100 scale where 0 is no effect and 100 is complete control
Procedure, shortened: as §1

corn (Zea mays) = test: Test A postemergence; details: for Corn plant response rating: 125 g ai/ha, postemergence, visual injury rating on 0 to 100 scale (0 no effect, 100 complete control), approx. 10 d; for Plant response rating, Corn: Postemergence, 500 g ai/ha, 0 to 100 scale where 0 is no effect and 100 is complete control
Procedure, shortened: as §1

[11] = test system: giant foxtail (Setaria faberii); test: Test A postemergence; details: for Foxtail, Giant plant response rating: 125 g ai/ha, postemergence, visual injury rating on 0 to 100 scale (0 no effect, 100 complete control), approx. 10 d; for Plant response rating, Foxtail, Giant: Postemergence, 500 g ai/ha, 0 to 100 scale where 0 is no effect and 100 is complete control
Procedure, shortened: as §1

[12] = test system: pigweed (Amaranthus retroflexus); test: Test A postemergence; details: for Pigweed plant response rating: 125 g ai/ha, postemergence, visual injury rating on 0 to 100 scale (0 no effect, 100 complete control), approx. 10 d; for Plant response rating, Pigweed: Postemergence, 500 g ai/ha, 0 to 100 scale where 0 is no effect and 100 is complete control
Procedure, shortened: as §1

[13] = test system: ragweed (common ragweed, Ambrosia elatior); test: Test A postemergence; details: for Ragweed plant response rating: 125 g ai/ha, postemergence, visual injury rating on 0 to 100 scale (0 no effect, 100 complete control), approx. 10 d; for Plant response rating, Ragweed: Postemergence, 500 g ai/ha, 0 to 100 scale where 0 is no effect and 100 is complete control
Procedure, shortened: as §1

[14] = test system: ryegrass, Italian (Italian ryegrass, Lolium multiflorum); test: Test A postemergence; details: for Ryegrass, Italian plant response rating: 125 g ai/ha, postemergence, visual injury rating on 0 to 100 scale (0 no effect, 100 complete control), approx. 10 d; for Plant response rating, Ryegrass, Italian: Postemergence, 500 g ai/ha, 0 to 100 scale where 0 is no effect and 100 is complete control
Procedure, shortened: as §1

[15] = test system: wheat (Triticum aestivum); test: Test A postemergence; details: for Wheat plant response rating: 125 g ai/ha, postemergence, visual injury rating on 0 to 100 scale (0 no effect, 100 complete control), approx. 10 d; for Plant response rating, Wheat: Postemergence, 500 g ai/ha, 0 to 100 scale where 0 is no effect and 100 is complete control
Procedure, shortened: as §1

[16] = test system: barnyardgrass (Echinochloa crus-galli); test: Test B flooded paddy test; details: Flood, 250 g ai/ha; 0 to 100 scale where 0 is no effect and 100 is complete control; 13 to 15 d
Procedure, shortened: (§2)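 2-leaf plants; pots flooded 3 cm over soil; cpd added to paddy water; depth held; greenhouse 13–15 d; visual rating vs controls, 0 = no effect, 100 = complete control.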

[17] = test system: ducksalad (Heteranthera limosa); test: Test B flooded paddy test; details: Flood, 250 g ai/ha; 0 to 100 scale where 0 is no effect and 100 is complete control; 13 to 15 d
Procedure, shortened: as §2

rice (Oryra sativa) = test: Test B flooded paddy test; details: Flood, 250 g ai/ha; 0 to 100 scale where 0 is no effect and 100 is complete control; 13 to 15 d
Procedure, shortened: as §2

[18] = test system: sedge, umbrella (small-flower umbrella sedge, Cyperus difformis); test: Test B flooded paddy test; details: Flood, 250 g ai/ha; 0 to 100 scale where 0 is no effect and 100 is complete control; 13 to 15 d
Procedure, shortened: as §2

SMILES | Plant response rating, Kochia (Kochia (Kochia scoparia) [1]) | Kochia plant response rating (0 to 100 scale, 0 is no effect, 100 is complete control) (Kochia (Kochia scoparia) [1]) | Plant response rating, Barnyardgrass [2] | Barnyardgrass plant response rating (0 to 100 scale, 0 is no effect, 100 is complete control) [2] | Plant response rating, Foxtail, Giant [3] | Foxtail, Giant plant response rating (0 to 100 scale, 0 is no effect, 100 is complete control) [3] | Plant response rating, Pigweed [4] | Pigweed plant response rating (0 to 100 scale, 0 is no effect, 100 is complete control) [4] | Plant response rating, Ragweed [5] | Ragweed plant response rating (0 to 100 scale, 0 is no effect, 100 is complete control) [5] | Plant response rating, Ryegrass, Italian [6] | Ryegrass, Italian plant response rating (0 to 100 scale, 0 is no effect, 100 is complete control) [6] | Galium plant response rating [7] | Plant response rating, Galium [7] | Kochia plant response rating (Kochia (Kochia scoparia) [8]) | Plant response rating, Kochia (Kochia (Kochia scoparia) [8]) | Barnyardgrass plant response rating [9] | Plant response rating, Barnyardgrass [9] | Blackgrass plant response rating [10] | Plant response rating, Blackgrass [10] | also measured
O=C1NCC(c2ccc(F)cc2F)C1C(=O)Nc1ccc(F)cc1F (racemic) [Compound 518] | 0 | 0 | 0 | 60 | 70 | 90 | 0 | 0 | 0 | 0 | 0 | 0 | 0 | 20 | 0 | 0 | 0 | 50 | 0 | 0 | Corn plant response rating (corn (Zea mays)): 0; Plant response rating, Corn (corn (Zea mays)): 0; Foxtail, Giant plant response rating [11]: 20; Plant response rating, Foxtail, Giant [11]: 70; Pigweed plant response rating [12]: 0; Plant response rating, Pigweed [12]: 0; Ragweed plant response rating [13]: 0; Plant response rating, Ragweed [13]: 0; Ryegrass, Italian plant response rating [14]: 0; Plant response rating, Ryegrass, Italian [14]: 0; Wheat plant response rating [15]: 0; Plant response rating, Wheat [15]: 0; Plant response rating, Barnyardgrass [16]: 0; Plant response rating, Ducksalad [17]: 65; Plant response rating, Rice (rice (Oryra sativa)): 0; Plant response rating, Sedge, Umbrella [18]: 0
O=C1NCC(c2cccc(F)c2F)C1C(=O)Nc1ccc(F)cc1F (stereo not drawn) [Compound 495] | 20 | 30 | 30 | 90 | 90 | 90 | 0 | 20 | 0 | 0 | 0 | 20 | 0 | 0 | 30 | 30 | 20 | 80 | 0 | 20 | Corn plant response rating (corn (Zea mays)): 0; Plant response rating, Corn (corn (Zea mays)): 30; Foxtail, Giant plant response rating [11]: 20; Plant response rating, Foxtail, Giant [11]: 70; Pigweed plant response rating [12]: 0; Plant response rating, Pigweed [12]: 0; Ragweed plant response rating [13]: 0; Plant response rating, Ragweed [13]: 0; Ryegrass, Italian plant response rating [14]: 0; Plant response rating, Ryegrass, Italian [14]: 20; Wheat plant response rating [15]: 0; Plant response rating, Wheat [15]: 20; Plant response rating, Barnyardgrass [16]: 35; Plant response rating, Ducksalad [17]: 75; Plant response rating, Rice (rice (Oryra sativa)): 0; Plant response rating, Sedge, Umbrella [18]: 0
